From US12435059B2, “AMP-activated protein kinase inhibitors and methods of making and using the same” (The Regents of the University of Colorado, priority 2019, dated 2025)

Tests used:
Assay in all cases: biochemical
Type in all cases: binding
468 kinases [1] = target: 468 kinases (Homo sapiens, UniProt Q52WX2); conditions: SBK1; read-out: % Inhibition @ 100 nM
468 kinases [2] = target: 468 kinases (Homo sapiens, UniProt O14578); conditions: CIT; read-out: % Inhibition @ 100 nM
468 kinases [3] = target: 468 kinases (Homo sapiens, UniProt P04049); conditions: RAF1; read-out: % Inhibition @ 100 nM
468 kinases [4] = target: 468 kinases (Homo sapiens, UniProt O43683); conditions: BUB1; read-out: % Inhibition @ 100 nM
468 kinases [5] = target: 468 kinases (Homo sapiens, UniProt P27361); conditions: ERK1; read-out: % Inhibition @ 100 nM
468 kinases [6] = target: 468 kinases (Homo sapiens, UniProt P00533, G719S); conditions: EGFR(G719S); read-out: % Inhibition @ 100 nM
468 kinases [7] = target: 468 kinases (Homo sapiens, UniProt Q8WXR4); conditions: MYO3B; read-out: % Inhibition @ 100 nM
468 kinases [8] = target: 468 kinases (Homo sapiens, UniProt P07949); conditions: RET; read-out: % Inhibition @ 100 nM
468 kinases [9] = target: 468 kinases (Homo sapiens, UniProt P22607); conditions: FGFR3; read-out: % Inhibition @ 100 nM
468 kinases [10] = target: 468 kinases (Homo sapiens, UniProt Q9UM73, L1196M); conditions: ALK(L1196M); read-out: % Inhibition @ 100 nM
468 kinases [11] = target: 468 kinases (Homo sapiens, UniProt P08581, M1250T); conditions: MET(M1250T); read-out: % Inhibition @ 100 nM
468 kinases [12] = target: 468 kinases (Homo sapiens, UniProt P49761); conditions: CLK3; read-out: % Inhibition @ 100 nM
468 kinases [13] = target: 468 kinases (Homo sapiens, UniProt P42680); conditions: TEC; read-out: % Inhibition @ 100 nM
468 kinases [14] = target: 468 kinases (Homo sapiens, UniProt Q9BUB5); conditions: MKNK1; read-out: % Inhibition @ 100 nM
468 kinases [15] = target: 468 kinases (Homo sapiens, UniProt P10721, V559D); conditions: KIT(V559D); read-out: % Inhibition @ 100 nM
468 kinases [16] = target: 468 kinases (Homo sapiens, UniProt Q86YV6); conditions: MYLK4; read-out: % Inhibition @ 100 nM
468 kinases [17] = target: 468 kinases (Homo sapiens, UniProt Q86V86); conditions: PIM3; read-out: % Inhibition @ 100 nM
468 kinases [18] = target: 468 kinases (Homo sapiens, UniProt Q96PN8); conditions: TSSK3; read-out: % Inhibition @ 100 nM
468 kinases [19] = target: 468 kinases (Homo sapiens, UniProt O14733); conditions: MKK7; read-out: % Inhibition @ 100 nM
468 kinases [20] = target: 468 kinases (Plasmodium falciparum, UniProt P62344); conditions: PFCDPK1 (P.falciparum); read-out: % Inhibition @ 100 nM
468 kinases [21] = target: 468 kinases (Homo sapiens, UniProt Q9C098); conditions: DCAMKL3; read-out: % Inhibition @ 100 nM
468 kinases [22] = target: 468 kinases (Homo sapiens, UniProt Q15303); conditions: ERBB4; read-out: % Inhibition @ 100 nM
468 kinases [23] = target: 468 kinases (Homo sapiens, UniProt Q13976); conditions: PRKG1; read-out: % Inhibition @ 100 nM
468 kinases [24] = target: 468 kinases (Homo sapiens, UniProt P42336); conditions: PIK3CA; read-out: % Inhibition @ 100 nM
468 kinases [25] = target: 468 kinases (Homo sapiens, UniProt Q8WTQ7); conditions: GRK7; read-out: % Inhibition @ 100 nM
468 kinases [26] = target: 468 kinases (Homo sapiens, UniProt P07947); conditions: YES; read-out: % Inhibition @ 100 nM
468 kinases [27] = target: 468 kinases (Homo sapiens, UniProt Q13873); conditions: BMPR2; read-out: % Inhibition @ 100 nM
468 kinases [28] = target: 468 kinases (Homo sapiens, UniProt P29320); conditions: EPHA3; read-out: % Inhibition @ 100 nM
468 kinases [29] = target: 468 kinases (Homo sapiens, UniProt Q8TD19); conditions: NEK9; read-out: % Inhibition @ 100 nM
468 kinases [30] = target: 468 kinases (Homo sapiens, UniProt Q8IU85); conditions: CAMK1D; read-out: % Inhibition @ 100 nM
468 kinases [31] = target: 468 kinases (Homo sapiens, UniProt P48729); conditions: CSNK1A1; read-out: % Inhibition @ 100 nM
468 kinases [32] = target: 468 kinases (Homo sapiens, UniProt Q8IWQ3); conditions: BRSK2; read-out: % Inhibition @ 100 nM
468 kinases [33] = target: 468 kinases (Homo sapiens, UniProt Q13043); conditions: MST1; read-out: % Inhibition @ 100 nM

CCN(CC)CCNC(=O)c1c(C)[nH]c(/C=C2\C(=O)Nc3ccc(CCO)cc32)c1C [Compound No. 10, (Z)—N-(2-(Diethylamino)ethyl)-5-((5-(2-hydroxyethyl)-2-oxoindolin-3-ylidene)methyl)-2,4-dimethyl-1H-pyrrole-3-carboxamide]
inhibition at 0.1 µM (468 kinases [1]): 40% | inhibition at 0.1 µM (468 kinases [2]): 4% | inhibition at 0.1 µM (468 kinases [3]): 9% | inhibition at 0.1 µM (468 kinases [4]): 0% | inhibition at 0.1 µM (468 kinases [5]): 0% | inhibition at 0.1 µM (468 kinases [6]): 9% | inhibition at 0.1 µM (468 kinases [7]): 0% | inhibition at 0.1 µM (468 kinases [8]): 55% | inhibition at 0.1 µM (468 kinases [9]): 52% | inhibition at 0.1 µM (468 kinases [10]): 52% | inhibition at 0.1 µM (468 kinases [11]): 0% | inhibition at 0.1 µM (468 kinases [12]): 5% | inhibition at 0.1 µM (468 kinases [13]): 0% | inhibition at 0.1 µM (468 kinases [14]): 3% | inhibition at 0.1 µM (468 kinases [15]): 88% | inhibition at 0.1 µM (468 kinases [16]): 32% | inhibition at 0.1 µM (468 kinases [17]): 8% | inhibition at 0.1 µM (468 kinases [18]): 4% | inhibition at 0.1 µM (468 kinases [19]): 0% | inhibition at 0.1 µM (468 kinases [20]): 0% | inhibition at 0.1 µM (468 kinases [21]): 73% | inhibition at 0.1 µM (468 kinases [22]): 15% | inhibition at 0.1 µM (468 kinases [23]): 0% | inhibition at 0.1 µM (468 kinases [24]): 0% | inhibition at 0.1 µM (468 kinases [25]): 40% | inhibition at 0.1 µM (468 kinases [26]): 13% | inhibition at 0.1 µM (468 kinases [27]): 0% | inhibition at 0.1 µM (468 kinases [28]): 0% | inhibition at 0.1 µM (468 kinases [29]): 0% | inhibition at 0.1 µM (468 kinases [30]): 0% | inhibition at 0.1 µM (468 kinases [31]): 14% | inhibition at 0.1 µM (468 kinases [32]): 32% | inhibition at 0.1 µM (468 kinases [33]): 28%

CCN(CC)CCNC(=O)c1c(C)[nH]c(/C=C2\C(=O)Nc3ccc(CCC(N)=O)cc32)c1C [Compound No. 16, (Z)-5-((5-(3-Amino-3-oxopropyl)-2-oxoindolin-3-ylidene)methyl)-N-(2-(diethylamino)ethyl)-2,4-dimethyl-1H-pyrrole-3-carboxamide]
inhibition at 0.1 µM (468 kinases [1]): 58% | inhibition at 0.1 µM (468 kinases [2]): 0% | inhibition at 0.1 µM (468 kinases [3]): 0% | inhibition at 0.1 µM (468 kinases [4]): 21% | inhibition at 0.1 µM (468 kinases [5]): 13% | inhibition at 0.1 µM (468 kinases [6]): 21% | inhibition at 0.1 µM (468 kinases [7]): 0% | inhibition at 0.1 µM (468 kinases [8]): 60% | inhibition at 0.1 µM (468 kinases [9]): 11% | inhibition at 0.1 µM (468 kinases [10]): 31% | inhibition at 0.1 µM (468 kinases [11]): 6% | inhibition at 0.1 µM (468 kinases [12]): 10% | inhibition at 0.1 µM (468 kinases [13]): 0% | inhibition at 0.1 µM (468 kinases [14]): 31% | inhibition at 0.1 µM (468 kinases [15]): 0% | inhibition at 0.1 µM (468 kinases [16]): 24% | inhibition at 0.1 µM (468 kinases [17]): 0% | inhibition at 0.1 µM (468 kinases [18]): 5% | inhibition at 0.1 µM (468 kinases [19]): 17% | inhibition at 0.1 µM (468 kinases [20]): 14% | inhibition at 0.1 µM (468 kinases [21]): 88% | inhibition at 0.1 µM (468 kinases [22]): 6% | inhibition at 0.1 µM (468 kinases [23]): 14% | inhibition at 0.1 µM (468 kinases [24]): 14% | inhibition at 0.1 µM (468 kinases [25]): 76% | inhibition at 0.1 µM (468 kinases [26]): 24% | inhibition at 0.1 µM (468 kinases [27]): 50% | inhibition at 0.1 µM (468 kinases [28]): 14% | inhibition at 0.1 µM (468 kinases [29]): 0% | inhibition at 0.1 µM (468 kinases [30]): 6% | inhibition at 0.1 µM (468 kinases [31]): 27% | inhibition at 0.1 µM (468 kinases [32]): 25% | inhibition at 0.1 µM (468 kinases [33]): 0%
